Experimental data taken from paper PMC6270338, “Diterpenylquinone Hybrids: Synthesis and Assessment of Gastroprotective Mechanisms of Action in Human Cells” (Molecules, 2013).

Columns and labels:
[1] = Cytotoxicity, neutral red uptake assay, MRC-5; type: cell-based; details: human, MRC-5 lung fibroblasts, confluent monolayer, confluent MRC-5, 24 h, read-out: IC50 ± SD, cytotoxicity MRC-5
Description: (§1) Human lung fibroblasts MRC-5 (ATCC CCL-171) were grown in minimum essential Eagle medium (MEM) with Earles’s salts and 2 mM L-glutamine (Sigma-Aldrich Co.). Human epithelial gastric cells AGS (ATCC CRL-1739) were grown in Ham F-12 medium containing 1 mM L-glutamine. Both media were supplemented with 1.5 g/L sodium bicarbonate (Sigma-Aldrich Co.), 10% heat-inactivated fetal bovine serum (FBS), 100 IU/mL penicillin and 100 µg/mL streptomycin.Both cell lines were grown as monolayers in a humidified incubator with 5% CO2 in air at 37 °C. Culture media, antibiotics and FBS were obtained from Invitrogen Corp.
(§2) Cytotoxicity values were required as a reference to determine the working concentrations in the subsequent experiments. Briefly, confluent cultures of MRC-5 and AGS cells were treated during 24 h with medium containing the compounds at concentrations ranging from 0 up to 1,000 µM. The products were first dissolved in DMSO (1% final concentration) and then in the corresponding culture medium supplemented with 2% FBS. Untreated cells were used as controls. Cell viability was determined at the end of the incubation by means of the neutral red uptake (NRU) assay. Lansoprazole (Sigma-Aldrich Co., min. 98% by TLC) was used as reference compound.

[2] = Cytotoxicity, neutral red uptake assay, AGS; type: cell-based; details: human, AGS gastric epithelial cells, confluent monolayer, read-out: IC50 ± SD, cytotoxicity AGS
Description: as §1, §2

[3] = system: AGS cells; test: Prostaglandin E2 (PGE2) content of AGS cells; type: cell-based, human; details: 1 h; for PGE2: post-confluent AGS, control 52 ± 5
Description: One day after confluence, AGS cells were treated for 1 h with the compounds at 1/2 and 1/4 of the respective IC50 values. A control with medium only was included. Indomethacin (100 μM) was used as standard inhibitor of prostaglandin synthesis (Sigma-Aldrich Co., min. 99% by TLC). After incubation, PGE2 content was determined by means of a specific enzyme immunoassay kit (R & D Systems KGE004B, Minneapolis, MN, USA) and values were calculated according to the manufacturer instructions. Results are expressed as pg/well.

[4] = system: AGS cells; test: Cellular reduced glutathione (GSH) content of AGS cells; type: cell-based, human; details: 4 h; for GSH: post-confluent AGS, control 13.6 ± 0.7
Description: Untreated cells were used as controls. […] After incubation, the GSH content was determined using a colorimetric kit (BioAssays Systems, Hayward, CA, USA). Results are expressed as nanomol of soluble reduced sulfhydryls/10^6 cells.

[5] = system: human erythrocyte membranes; test: Inhibition of lipoperoxidation in erythrocyte membranes; type: biochemical
[6] = system: HCl-EtOH-induced gastric lesions; set-up: method as in PMID 21996716; details: mice, orally, single dose of 5 mg/kg; cited from earlier work
[7] = system: human erythrocyte membranes; test: Inhibition of lipoperoxidation in erythrocyte membranes; type: biochemical; details: at 100 µg/mL
Description: The inhibition of lipid peroxidation was determined using human erythrocyte membranes. The compounds were tested at 100 µg/mL.

With C=C1CCC2[C@](C)(CCC[C@]2(C)C(=O)OC)[C@H]1CC[C@@H](C)CC(=O)OC1=C(CC=C(C)C)C(=O)c2ccccc2C1=O (stereo partly drawn) [Compound 8, Lapachoyl junicedrate methyl ester] the IC50 at 24 h [1] was > 1000 µM, the IC50 at 24 h [2] was > 1000 µM and the fold induction at 250 µM ([3]; Homo sapiens, AGS, 250 µM, read-out: increase in PGE2 content) was 5.2. It also gave a fold induction at 500 µM ([3]; Homo sapiens, AGS, 500 µM, read-out: increase in PGE2 content) of 15.2, a PGE2 ([3]; 250 µM) of 272 ± 30 pg/mL and a PGE2 ([3]; 500 µM) of 787 ± 56 pg/mL. The activation at 125 µM ([4]; Homo sapiens, AGS, 125 µM, read-out: increase of GSH content compared to untreated controls) was 19%, the activation at 250 µM ([4]; Homo sapiens, AGS, 250 µM, read-out: increase of GSH content compared to untreated controls) was 24% and the GSH ([4]; 125 µM) was “* 16.2 ± 0.6 nmol/10^6 cells”. For the same compound, the GSH ([4]; 250 µM) was “* 16.8 ± 0.9 nmol/10^6 cells”, the “IC50, inhibition of the lipoperoxidation” value [5] was “IC50 81.4 ± 11.0 µg/mL” and the “gastroprotective effect in vivo” value [6] was “active”.
In the case of C=C1CCC2[C@](C)(CCC[C@]2(C)C(=O)O)[C@H]1CC[C@@H](C)CC(=O)OC1=C(CCC(C)C)C(=O)c2ccccc2C1=O (stereo partly drawn) [Compound 9, Dihydroprenyl lapachol junicedrate], the IC50 at 24 h [1] is reported as 449 ± 27 µM, the IC50 at 24 h [2] is reported as 49 ± 10 µM and the fold induction at 12.5 µM ([3]; Homo sapiens, AGS, 12.5 µM, read-out: increase in PGE2 content) is reported as 5.9. The PGE2 ([3]; 12.5 µM) was 309 ± 29 pg/mL, the activation at 6 µM ([4]; Homo sapiens, AGS, 6 µM, read-out: increase of GSH content compared to untreated controls) was 15% and the activation at 12 µM ([4]; Homo sapiens, AGS, 12 µM, read-out: increase of GSH content compared to untreated controls) was 16%. The GSH ([4]; 6 µM) was “* 15.6 ± 0.6 nmol/10^6 cells”, the GSH ([4]; 12 µM) was “* 15.8 ± 0.6 nmol/10^6 cells” and the “IC50, inhibition of the lipoperoxidation” value [5] was “IC50 40.1 ± 5.3 µg/mL”. For the same compound, the “gastroprotective effect in vivo” value [6] was “significant activity”.
With C=C1CCC2[C@](C)(CCC[C@]2(C)C(=O)OC)[C@H]1CC[C@@H](C)CC(=O)OC1=C(CCC(C)C)C(=O)c2ccccc2C1=O (stereo partly drawn) [Compound 10, Dihydroprenyl lapachoyl junicedrate methyl ester] the IC50 at 24 h [1] was > 1000 µM, the IC50 at 24 h [2] was 659 ± 42 µM and the fold induction at 162 µM ([3]; Homo sapiens, AGS, 162 µM, read-out: increase in PGE2 content) was 5.9. It also gave a fold induction at 323 µM ([3]; Homo sapiens, AGS, 323 µM, read-out: increase in PGE2 content) of 8.9, a PGE2 ([3]; 162 µM) of 306 ± 32 pg/mL and a PGE2 ([3]; 323 µM) of 465 ± 39 pg/mL. The GSH ([4]; 83 µM) was 13.4 ± 0.7 nmol/10^6 cells, the GSH ([4]; 165 µM) was 13.0 ± 0.7 nmol/10^6 cells and the “IC50, inhibition of the lipoperoxidation” value [5] was “IC50 99.4 ± 9.1 µg/mL”. The “gastroprotective effect in vivo” value [6] was “significant activity”.
With COC(=O)[C@@]1(C)CCC[C@]2(C)C(CC[C@@H](C)CC(=O)OC3=C(CC=C(C)C)C(=O)c4ccccc4C3=O)=C(C)CCC12 (stereo partly drawn) [Compound 20, Lapachoyl Δ8(9) junicedrate methyl ester] the IC50 at 24 h [1] was 483 ± 31 µM, the IC50 at 24 h [2] was 321 ± 24 µM and the activation at 40 µM ([4]; Homo sapiens, AGS, 40 µM, read-out: increase of GSH content compared to untreated controls) was 19%. For the same compound, the activation at 80 µM ([4]; Homo sapiens, AGS, 80 µM, read-out: increase of GSH content compared to untreated controls) was 13%, the GSH ([4]; 40 µM) was “* 16.2 ± 1.0 nmol/10^6 cells” and the GSH ([4]; 80 µM) was “* 15.4 ± 1.3 nmol/10^6 cells”. The “IC50, inhibition of the lipoperoxidation” value [5] was “IC50 58.1 ± 4.1 µg/mL” and the “gastroprotective effect in vivo” value [6] was “active”.
In the case of COC(=O)[C@@]1(C)CCC[C@]2(C)C(CC[C@@H](C)CC(=O)OC3=C(CCC(C)C)C(=O)c4ccccc4C3=O)=C(C)CCC12 (stereo partly drawn) [Compound 22, Dihydroprenyl lapachoyl Δ8(9) junicedrate methyl ester], the IC50 at 24 h [1] is reported as 848 ± 51 µM, the IC50 at 24 h [2] is reported as 340 ± 20 µM and the fold induction at 170 µM ([3]; Homo sapiens, AGS, 170 µM, read-out: increase in PGE2 content) is reported as 2.2. The PGE2 ([3]; 170 µM) was 114 ± 11 pg/mL, the GSH ([4]; 43 µM) was 13.6 ± 0.9 nmol/10^6 cells and the GSH ([4]; 85 µM) was 14.2 ± 0.6 nmol/10^6 cells. For the same compound, the “% Inhibition of the lipoperoxidation” value [7] was 46% and the “gastroprotective effect in vivo” value [6] was “significant activity”.
